Experimental data as given in patent US20080207653A1, “Compositions and Method for Increasing the Efficacy of Epidermal Growth Factor Receptor Tyrosine Kinase Inhibitors” (priority 2005, published 2008).

Experiments:
[1] = test system: human lung cancer A549 cells; assay: Erlotinib accumulation and stereoisomerization in A549 cells and treatment media (LC-MS-MS); type: cell-based; details: for conversion of parent drug to the 1.78 minute stereoisomer in the presence of cells: media with A549 cells
Experimental: Analysis of erlotinib metabolism was carried out using erlotinib-resistance cancer cells (human lung cancer A549 cells). Cells were exposed to achievable clinical doses (3 μM) of erlotinib and then lysed at various times following exposure to the drug. Relative erlotinib concentrations were determined in the A549 cell treatment media and compared to levels of erlotinib containing media incubated in the absence of cells as a control. Erlotinib concentrations were assessed using a liquid chromatography dual mass spectrometric method. […] Based on an analysis of chemical structure, only one stereoisomer of the parent drug could account for the 1.78 minute variant form. The stereoisomer migrating at 1.78 minutes represents the L or S configuration of this molecule, wherein the configuration is determined by performing liquid chromatographic separation of the two stereoisomers followed by nuclear magnetic resonance (NMR) analysis of each.
Culture of A549 human lung cancer cells were carried out in Ham's F12 media with L-glutamine containing 10% fetal bovine serum, amphoterecin B, penicillin, and streptomycin. Cells were plated at a density of 300,000 cells per well in a 6 well plate. Cells were allowed to adhere overnight, media was aspirated and 3 mL of treatment media containing 3 μM erlotinib was added to each well. At the same time, 3 mL of the same media was added to wells that contained no cells as a control. One hundred μL of the media was removed from the wells immediately prior to harvesting the cells at various time points. The remaining media was removed and 250 μL of distilled deionized water was added to each well. Cells were also disrupted with a rubber policeman. Each media or cell extract sample was brought to a 1 mL volume with methanol and water (final concentration 50% methanol). Fifty μL of 0.4 M ZnSO4 was added to each sample. Samples were vortexed for 10 seconds and centrifuged at 13,000 RCF for 5 minutes. The supernatants from each were subjected to LC-MS-MS chromatographic analysis using a Waters® Model 2795 system equipped with a Waters® X-Terra® MS column. The mobile phase was composed of 70% methanol containing 0.1% formic acid at a flow rate of 0.15 mL per minute. Dual mass spectroscopy was performed with 394 for the initial mass and 278 for the daughter ion (after collision using argon gas). Dual mass spectroscopic analysis of midazolam was used as an internal standard and was performed at the same time using 326 as the mass for the parent and 291 for the daughter ion. Data was collected and analyzed using Masslynx™ version 3.4 software.

[2] = test system: chemotherapy refractory non-small cell lung cancer; details: cited from earlier work
cyclin D1 protein = details: in vitro and in vivo, aerodigestive tract cancers; cited from earlier work
human tumor xenografts = details: animals; cited from earlier work

**Q.** Which “intracellular concentration of erlotinib by 8 hours” value ([1]; A549 cells, 3 μM erlotinib, 8 hours) does the source give for C#Cc1cccc(Nc2ncnc3cc(OCCOC)c(OCCOC)cc23)c1 [erlotinib, N-(3-ethynylphenyl)-6,7-bis(2-methoxyethoxy)quinazolin-4-amine] here?
**A.** Its value is “nearly undetectable levels”.

**Q.** What about the “time at which intracellular concentrations of erlotinib peaked” value ([1]; A549 cells, 3 μM erlotinib, cell lysates) of the same compound?
**A.** The value was 4 h.

**Q.** What about the “total erlotinib concentrations in the treatment media over the time course” value ([1]; A549 treatment media, 3 μM erlotinib) of the same compound?
**A.** Its value is “did not vary significantly”.

**Q.** What about the “stereoisomer present in the media in the absence of cells” value ([1]; control media without cells, throughout the time course) of the same compound?
**A.** Its value is “parent drug constituted the most abundant stereoisomer”.

**Q.** And the “conversion of parent drug to the 1.78 minute stereoisomer in the presence of cells” value ([1]; 4 hours)?
**A.** The value was “some conversion”.

**Q.** What about the “conversion of parent drug to the 1.78 minute stereoisomer in the presence of cells” value ([1]; 8 hours) of the same compound?
**A.** Its value is “complete conversion”.

**Q.** And the “toxicity at clinical dose” value ([2]; doses in the range of 150 mg, patients)?
**A.** Its value is “little reported toxicity”.

**Q.** What about the “dose showing the ability to affect tumor growth” value ([2]; patients with chemotherapy refractory non-small cell lung cancer) of the same compound?
**A.** The value was roughly 150 mg.

**Q.** And the “effect on expression of cyclin D1 protein” value (cyclin D1 protein)?
**A.** The value was “represses expression of cyclin D1 protein”.

**Q.** And the “dose inhibiting proliferation of human tumor xenografts” value (human tumor xenografts)?
**A.** Its value is roughly 10 mg/kg.
